Experimental data reported in EPA's ToxRefDB 2.

Legend:
[1] = system: mouse; conditions: Carcinogenicity; b6c3f1; Oral; Gavage/Intubation; dose end: 2 year; group: systemic; systemic / in life observation / body weight / body weight + systemic / in life observation / clinical signs / [other] + systemic / in life …
[2] = system: rat; conditions: Prenatal developmental toxicity study; sprague dawley; Oral; Gavage/Intubation; dose end: 15 GD; group: maternal; systemic / in life observation / body weight / body weight gain
[3] = system: rat; conditions: Combined chronic toxicity/carcinogenicity; fischer; Oral; Gavage/Intubation; dose end: 2 year; group: systemic; systemic / in life observation / clinical signs / ataxia + systemic / in life observation / clinical signs / prostration + systemic / in …
[4] = system: rat; conditions: Multigenerational reproductive toxicity study, sprague dawley, Oral, Water, dose end: 2 generation, group: parental
[5] = system: mouse; conditions: Subchronic oral toxicity in rodents, b6c3f1, Gavage/Intubation, dose end: 13 week, group: systemic
[6] = system: rat; conditions: Subchronic oral toxicity in rodents, fischer, Gavage/Intubation, dose end: 13 week, group: systemic
[7] = system: rat; conditions: Prenatal developmental toxicity study, wistar, Oral, Gavage/Intubation, dose end: 15 GD
[8] = system: rat; conditions: Multigenerational reproductive toxicity study, sprague dawley, Oral, Feed, dose end: 2 generation
[9] = system: rat; conditions: Subchronic oral toxicity in rodents, fischer, Feed, dose end: 13 week, group: systemic
[10] = system: rat; conditions: Sub-acute repeat dose toxicity, sprague dawley, Oral, Gavage/Intubation, dose end: 5 day, group: systemic
[11] = system: dog; conditions: Sub-acute repeat dose toxicity, beagle, Oral, Gavage/Intubation, dose end: 7 day, group: systemic
[12] = system: dog; conditions: Sub-acute repeat dose toxicity, beagle, Oral, Gavage/Intubation, dose end: 5 day, group: systemic
[13] = system: mouse; conditions: Carcinogenicity, b6c3f1, Oral, Feed, dose end: 78 week, group: systemic
[14] = system: rat; conditions: Carcinogenicity, fischer, Oral, Feed, dose end: 78 week, group: systemic
[15] = system: rat; conditions: Subchronic oral toxicity in rodents, other, Feed, dose end: 90 day, group: systemic
[16] = system: rat; conditions: Developmental neurotoxicity study, sprague dawley, Inhalation, Whole-Body, dose end: 2 generation, group: cannot be grouped
[17] = system: mouse; conditions: Carcinogenicity, b6c3f1, Oral, Feed, dose end: 103 week, group: systemic
[18] = system: mouse; conditions: Subchronic oral toxicity in rodents, b6c3f1, Feed, dose end: 90 day, group: systemic
[19] = system: rat; conditions: Subchronic oral toxicity in rodents, fischer, Feed, dose end: 90 day, group: systemic, systemic / in life observation / body weight / body weight gain + systemic / pathology microscopic / kidney / calculus + systemic / …
[20] = system: mouse; conditions: Subchronic oral toxicity in rodents, b6c3f1, Feed, dose end: 13 week, group: systemic
[21] = system: rat; conditions: Carcinogenicity, fischer, Oral, Feed, dose end: 103 week, group: systemic
[22] = system: rat; conditions: Subchronic oral toxicity in rodents, fischer, Feed, dose end: 13 week, group: systemic; remark: listed apart in the source
[23] = systemic / in life observation / body weight / body weight gain + systemic / in life observation / water consumption / water consumption + …
[24] = systemic / organ weight / adrenal gland / absolute + systemic / organ weight / adrenal gland / relative to body weight
[25] = systemic / organ weight / adrenal gland / absolute + systemic / organ weight / adrenal gland / relative to body weight + systemic / in life …
[26] = systemic / in life observation / clinical signs / tremors + systemic / in life observation / mortality / mortality + systemic / organ weight…
[27] = group: developmental, systemic / in life observation / body weight / fetal weight + developmental / developmental malformation / mouth / jaw / cleft palate
[28] = group: maternal, reproductive / reproductive performance / postimplantation loss / postimplantation loss + reproductive / reproductive performance / …
[29] = group: offspring, developmental / developmental malformation / testes / delayed descent + developmental / developmental landmark / preputial separation / …
[30] = group: parental, systemic / in life observation / body weight / body weight + systemic / organ weight / adrenal gland / relative to body weight + systemic / …
[31] = group: reproductive, reproductive / reproductive performance / estrous cycle / periodicity + reproductive / reproductive performance / fertility / fertility
[32] = systemic / clinical chemistry / albumin / albumin + systemic / clinical chemistry / triglycerides / triglycerides
[33] = systemic / clinical chemistry / alkaline phosphatase (alp/alk) / alkaline phosphatase (alp/alk) + systemic / clinical chemistry / bile acids…
[34] = systemic / in life observation / body weight / body weight + systemic / in life observation / clinical signs / [other] + systemic / in life …
[35] = systemic / in life observation / body weight / body weight + systemic / in life observation / food consumption / food consumption + systemic…
[36] = systemic / in life observation / clinical signs / erythema + systemic / in life observation / clinical signs / prostration + systemic / in …
[37] = systemic / in life observation / clinical signs / erythema + systemic / in life observation / clinical signs / salivation
[38] = systemic / in life observation / clinical signs / abnormal feces
[39] = systemic / in life observation / clinical signs / abnormal feces + systemic / in life observation / clinical signs / emesis
[40] = systemic / in life observation / body weight / body weight
[41] = systemic / in life observation / body weight / body weight + systemic / pathology microscopic / liver / adenoma/carcinoma combined + …
[42] = systemic / hematology / erythrocyte (rbc) count differential / erythrocyte (rbc) + systemic / hematology / hemoglobin (hgb) / hemoglobin (…
[43] = systemic / in life observation / body weight / body weight gain
[44] = systemic / in life observation / body weight / body weight gain + systemic / pathology microscopic / harderian gland / adenoma + systemic / …
[45] = systemic / in life observation / body weight / body weight gain + systemic / pathology microscopic / thyroid gland / hyperplasia + systemic…
[46] = systemic / in life observation / body weight / body weight + systemic / in life observation / body weight / body weight gain + systemic / in…
[47] = systemic / in life observation / body weight / body weight gain + systemic / pathology gross / thyroid gland / enlarged
[48] = systemic / in life observation / body weight / body weight gain + systemic / pathology gross / thyroid gland / enlarged + systemic / …
[49] = systemic / pathology microscopic / thyroid gland / hyperplasia

Oc1cccc(O)c1 [Resorcinol] was tested, and the LEL [1] was 225 mg/kg/day, the LOAEL [1] was 225 mg/kg/day and the NEL [1] was 112 mg/kg/day. For the same compound, the NOAEL [1] was 112 mg/kg/day, the LEL [2] was 500 mg/kg/day and the LOAEL [2] was over 500 mg/kg/day. It also gave an NEL [2] of 250 mg/kg/day, an NOAEL [2] of at least 500 mg/kg/day and an LEL [3] of 100 mg/kg/day. For the same compound, the LOAEL [3] was 100 mg/kg/day, the NEL [3] was 50 mg/kg/day and the NOAEL [3] was 50 mg/kg/day. It also gave an LOAEL [4, 23] of over 233 mg/kg/day, an NEL [4, 23] of 31 mg/kg/day and an NOAEL [4, 23] of at least 233 mg/kg/day. For the same compound, the LEL ([4]; systemic / in life observation / water consumption / water consumption) was 86 mg/kg/day, the LEL [5, 24] was 28 mg/kg/day and the NEL [5, 24] was under 28 mg/kg/day. It also gave an LOAEL [5, 25] of over 420 mg/kg/day, an NOAEL [5, 25] of at least 420 mg/kg/day and an LOAEL [6, 26] of over 520 mg/kg/day. For the same compound, the NOAEL [6, 26] was at least 520 mg/kg/day, the LEL [6, 24] was 32 mg/kg/day and the NEL [6, 24] was under 32 mg/kg/day.
With CCCCOC(=O)c1ccccc1C(=O)OCCCC [Dibutyl phthalate] the LOAEL ([7]; group: developmental, systemic / in life observation / body weight / fetal weight) was 630 mg/kg/day, the LEL [7, 27] was 630 mg/kg/day and the NEL [7, 27] was 500 mg/kg/day. The NOAEL [7, 27] was 500 mg/kg/day, the LEL [7, 28] was 630 mg/kg/day and the LOAEL [7, 28] was 630 mg/kg/day. The NEL [7, 28] was 500 mg/kg/day, the NOAEL [7, 28] was 500 mg/kg/day and the LEL [8, 29] was 531 mg/kg/day. It also gave an LOAEL [8, 29] of over 531 mg/kg/day, an NEL [8, 29] of 51.8 mg/kg/day and an NOAEL [8, 29] of at least 531 mg/kg/day. The LOAEL [8, 30] was over 531 mg/kg/day, the NEL [8, 30] was 1.61 mg/kg/day and the NOAEL [8, 30] was at least 531 mg/kg/day. The LEL ([8]; group: parental, systemic / organ weight / adrenal gland / relative to body weight) was 5.35 mg/kg/day, the LEL ([8]; group: reproductive, reproductive / reproductive performance / estrous cycle / periodicity) was 95.3 mg/kg/day and the LOAEL [8, 31] was over 1020 mg/kg/day. It also gave an NEL [8, 31] of 9.24 mg/kg/day, an NOAEL [8, 31] of at least 1020 mg/kg/day and an LEL [9, 32] of 125 mg/kg/day. The NEL [9, 32] was under 125 mg/kg/day, the LOAEL [9, 33] was over 2000 mg/kg/day and the NOAEL [9, 33] was at least 2000 mg/kg/day.
COc1ccc(NC(=O)c2c[nH]c3c2C(=O)CCCC3)c(F)c1 was tested, and the LOAEL [10, 34] was over 250 mg/kg/day, the NOAEL [10, 34] was at least 250 mg/kg/day and the LEL [10, 35] was 25 mg/kg/day. It also gave an NEL [10, 35] of under 25 mg/kg/day, an LOAEL [11, 36] of over 250 mg/kg/day and an NOAEL [11, 36] of at least 250 mg/kg/day. For the same compound, the LEL [11, 37] was 10 mg/kg/day, the NEL [11, 37] was under 10 mg/kg/day and the LOAEL [12, 38] was over 100 mg/kg/day. It also gave an NOAEL [12, 38] of at least 100 mg/kg/day, an LEL [12, 39] of 5 mg/kg/day and an NEL [12, 39] of under 5 mg/kg/day.
Compound CN(C)c1ccc(C(=O)c2ccc(N(C)C)cc2)cc1 [Michler's ketone] has an LOAEL [13, 40] of 188 mg/kg/day, an NOAEL [13, 40] of under 188 mg/kg/day and an LEL [13, 41] of 188 mg/kg/day. The NEL [13, 41] was under 188 mg/kg/day, the LOAEL [14, 40] was 12.5 mg/kg/day and the NOAEL [14, 40] was under 12.5 mg/kg/day. For the same compound, the LEL [14, 41] was 12.5 mg/kg/day and the NEL [14, 41] was under 12.5 mg/kg/day.
For CNc1ccccc1C(=O)OC [Methyl 2-(methylamino)benzoate], the LOAEL [15, 42] was over 244 mg/kg/day, the NEL [15, 42] was 21 mg/kg/day and the NOAEL [15, 42] was at least 244 mg/kg/day. The LEL ([15]; systemic / hematology / leukocyte (wbc) count differential / leukocyte (wbc) + systemic / organ weight / kidney / absolute + systemic / …) was 82 mg/kg/day.
C=Cc1ccccc1 [Styrene] gave an LEL ([16]; systemic / in life observation / body weight / body weight gain + systemic / in life observation / body weight / offspring (pup) weight) of 150 ppm, an NEL ([16]; systemic / in life observation / body weight / body weight gain + systemic / in life observation / water consumption / water consumption) of 50 ppm and an LOAEL [16, 23] of over 500 ppm. For the same compound, the NOAEL [16, 23] was at least 500 ppm.
Nc1ccc(Oc2ccc(N)cc2)cc1 [4,4'-Oxydianiline] was tested, and the LOAEL [17, 43] was 22.5 mg/kg/day, the NOAEL [17, 43] was under 22.5 mg/kg/day and the LEL [17, 44] was 22.5 mg/kg/day. It also gave an NEL [17, 44] of under 22.5 mg/kg/day, an LEL [18, 43] of 45 mg/kg/day and an NEL [18, 43] of under 45 mg/kg/day. It also gave an LOAEL [18, 45] of 90 mg/kg/day, an NOAEL [18, 45] of 45 mg/kg/day and an LEL [19] of 30 mg/kg/day. For the same compound, the LOAEL [19] was 30 mg/kg/day, the NEL [19] was 15 mg/kg/day and the NOAEL [19] was 15 mg/kg/day. It also gave an LOAEL [20, 46] of over 557 mg/kg/day, an NEL [20, 46] of 68 mg/kg/day and an NOAEL [20, 46] of at least 557 mg/kg/day. It also gave an LEL ([20]; systemic / in life observation / body weight / body weight + systemic / in life observation / body weight / body weight gain + systemic / …) of 138 mg/kg/day, an LOAEL [21, 47] of 10 mg/kg/day and an NOAEL [21, 47] of under 10 mg/kg/day. For the same compound, the LEL [21, 48] was 10 mg/kg/day, the NEL [21, 48] was under 10 mg/kg/day and the LOAEL [22, 46] was over 168 mg/kg/day. It also gave an NOAEL [22, 46] of at least 168 mg/kg/day, an LEL [22, 49] of 27 mg/kg/day and an NEL [22, 49] of under 27 mg/kg/day.
